Results as given in PMC7206119, “RIP1 inhibition blocks inflammatory diseases but not tumor growth or metastases” (Cell Death and Differentiation, 2019).

Target: ZAP70 (Homo sapiens, UniProt P43403)
Assay: biochemical
Set-up: gene ZAP70; Thermo Fisher SelectScreen kinase panel: Z'-LYTE and Adapta activity, LanthaScreen binding
Description: 5 88 GNE684 was tested in Thermo Fisher Scientific SelectScreen assay (Madison, WI) 89 against 221 representative kinases at a concentration of 10 µM, which is 476-fold greater than the Ki app 90 for GNE684 against human RIP1 in the RIP1 enzyme 91 assay. The kinase assays were carried out using Z'-LYTE and Adapta activity and 92 LanthaScreen binding assays (Thermo Fisher Scientific, Madison WI) following 93 protocols developed and performed by Thermo Fisher Scientific 94 (https://www.thermofisher.com/us/en/home/products-and-services/services/custom-95 services/screening-and-profiling-services/selectscreen-profiling-service/selectscreen-96 kinase-profiling-service.html). 97 GNE684 was also tested against 468 kinases in the KINOMEscan scanMAX kinase 98 binding assay panel at a concentration of 10 µM following protocols developed and 99 performed by DiscoverX (http://www.discoverx.com/kinase_profiling).

Sequence of ZAP70 (P43403 whole entry): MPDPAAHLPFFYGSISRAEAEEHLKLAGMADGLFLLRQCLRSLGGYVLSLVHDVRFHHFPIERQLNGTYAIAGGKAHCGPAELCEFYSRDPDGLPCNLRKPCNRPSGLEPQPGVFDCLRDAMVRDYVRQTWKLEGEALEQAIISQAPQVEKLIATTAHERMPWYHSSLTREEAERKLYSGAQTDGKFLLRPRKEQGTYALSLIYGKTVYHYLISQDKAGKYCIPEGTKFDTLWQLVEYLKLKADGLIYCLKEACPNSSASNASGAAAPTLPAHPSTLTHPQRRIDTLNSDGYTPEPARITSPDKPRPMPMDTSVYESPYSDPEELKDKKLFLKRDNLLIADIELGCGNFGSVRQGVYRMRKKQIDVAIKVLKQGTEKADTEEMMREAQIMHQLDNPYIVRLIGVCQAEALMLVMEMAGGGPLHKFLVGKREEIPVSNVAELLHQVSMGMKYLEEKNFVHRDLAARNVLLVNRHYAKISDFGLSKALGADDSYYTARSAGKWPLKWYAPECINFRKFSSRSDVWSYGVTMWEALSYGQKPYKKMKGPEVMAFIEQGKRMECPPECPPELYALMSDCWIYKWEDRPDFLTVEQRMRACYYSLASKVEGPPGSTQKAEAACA

Compound `COc1cc2c(cn1)N(C)C(=O)[C@@H](NC(=O)c1nc3n(n1)[C@H](c1ccccc1)CC3)CC2` [GNE684, (S)-N-((S)-7-methoxy-1-methyl-2-oxo-2,3,4,5-tetrahydro-1H-pyrido[3,4-b]azepin-3-yl)-5-phenyl-6,7-dihydro-5H-pyrrolo[1,2-b][1,2,4]triazole-2-carboxamide] has an inhibition at 10 µM of 1%.
